Values quoted from earlier work in patent US20240315301A1, “Composition for Improving Vision” (ALGAE HEALTH SCIENCES CO., LTD., priority 2021, published 2024).

Settings: fold more than vitamin E

CC1=C(/C=C/C(C)=C/C=C/C(C)=C/C=C/C=C(C)/C=C/C=C(C)/C=C/C2=C(C)C(=O)C(O)CC2(C)C)C(C)(C)CC(O)C1=O (stereo not drawn) [Astaxanthin, 3, 3′-dihydroxy-β, β-carotene-4, 4′-dione]
antioxidant activity relative to vitamin E (VE): 1000 times
